Entries after “also recorded” stand apart in the source; their conditions may differ.
Legend:
coccidia = conditions: cited from earlier work
Eimeria acervulina = assay: Coccidiostatic activity in vivo against Eimeria acervulina (presence of oocysts in the excrements); set-up: species or system Eimeria acervulina (in Ranger pullets); key to E. acervulina (oocysts): A: absent; M: minimal present; P: present
Method: (§1) Groups of 5 one-week-old Ranger pullets were infected each with a mixture of 5500 sporulated oocysts of Eimeria tenella and with 5000 sporulated oocysts of Eimeria acervulina.
(§2) The compound being tested was administered at the preselected dose in admixture with a poultry-feed (LD5) poor in vitamin K and containing no other additive.
(§3) The pullets were fed ad libitum with a fodder so prepared, beginning from 1 day prior to the infestation and going on for further 5 days.
(§4) As a check, there were used non-infested non-treated chickens and infested non-treated chickens.
(§5) The evaluation of the activity on Eimeria tenella was accomplished by ascertaining the presence of lesions, if any, 5 days after the infection, while the activity on Eimeria acervulina was evaluated by ascertaining the presence of oocysts, if if any, in the excrements 5 days after the infection.
(§6) The above compounds were tested for anticoccidial activity against E. tenella and E. acervulina according to the procedure hereabove described.
(§7) The activity against E. tenella was expressed as percent control of the infection at the considered dose, while the activity against E. acervulina was expressed on the basis of the presence, if any, of oocysts in the excrements and was rated as follows: […]

Eimeria tenella = assay: Coccidiostatic activity in vivo against Eimeria tenella (lesions, % control of the infection); set-up: species or system Eimeria tenella (in Ranger pullets)
Method: as §1, §2, §3, §4, §5, §6, §7

chickens [1] = assay: Toxicity phenomena in chickens fed with the compound in poultry-feed; format: in vivo
[2] = Toxicity towards poultry, LD50; conditions: chicken, in vivo
chickens [3] = conditions: poultry; cited from earlier work
poultry = conditions: background; cited from earlier work

Row | Compound | activity of trans-isomer compared with cis isomer (coccidia; trans versus cis isomer in the piperidine ring, Barringer et al. 1973) | E. acervulina (oocysts) (Eimeria acervulina; 3.125 ppm in feed) | E. acervulina (oocysts) (Eimeria acervulina; 6.25 ppm in feed) | E. acervulina (oocysts) (Eimeria acervulina; 12.5 ppm in feed) | E. acervulina (oocysts) (Eimeria acervulina; 25 ppm in feed) | E. tenella (% control) (Eimeria tenella; 3.125 ppm in feed) | E. tenella (% control) (Eimeria tenella; 6.25 ppm in feed) | E. tenella (% control) (Eimeria tenella; 12.5 ppm in feed) | E. tenella (% control) (Eimeria tenella; 25 ppm in feed) | toxicity phenomena in chickens (chickens [1]; 100 ppm in poultry-feed along the duration of the activity test) | activity against E. acervulina, result in words (Eimeria acervulina; dose of 6.25 ppm) | LD50 [2] [mg/kg] | activity against E. tenella, result in words (Eimeria tenella; dose of 12.5 ppm) | anticoccidial activity (coccidia; background, poultry, even at very low doses (practical dose 3 ppm in feed)) | toxicity phenomena in chickens (chickens [1]; about 38 ppm in the poultry-feed) | LD50 (chickens [3]) [mg/Kg body weight] | toxicity for chickens (poultry)
1 | O=C(C[C@H]1NCCC[C@@H]1O)Cn1cnc2cc(Br)c(Cl)cc2c1=O (relative stereo) [trans-isomer] | higher activity than the corresponding cis isomer |  |  |  |  |  |  |  |  |  |  |  |  |  |  |  | 
2 | O=c1c2cc(Cl)c(Br)cc2ncn1CC(CC1NCCCC1O)=NO (stereo not shown) [Compound A, reference compound] |  | P | P | P | M | 0 | 0 | 40 | 100 |  |  |  |  |  |  |  | 
3 | NN=C(CC1NCCCC1O)Cn1cnc2cc(Br)c(Cl)cc2c1=O (stereo not shown) [Compound No. 1, 6-chloro-7-bromo-3-[3-(3-hydroxy-2-piperidyl)-acetonyl]-(3H)-quinazolin-4-one hydrazone] |  | M | A | A | A | 100 | 100 | 100 | 100 |  |  |  |  |  |  |  | 
4 | CCNN=C(CC1NCCCC1OC)Cn1cnc2cc(Br)c(Cl)cc2c1=O (stereo not shown) [Compound No. 2, 6-chloro-7-bromo-3-[3-(3-methoxy-2-piperidyl)-acetonyl]-(3H)-quinazolin-4-one ethylhydrazone] |  |  | P | A | A |  | 100 | 100 | 100 | No toxicity phenomena | complete activity | ~100 | full activity |  |  |  | 
5 | O=C(CC1NCCCC1O)Cn1cnc2cc(Br)c(Cl)cc2c1=O (stereo not shown) [Halofuginone] |  |  |  |  |  |  |  |  |  |  |  |  |  | particularly active against coccidiosis in poultry; also recorded: high anticoccidial activity even at very low doses | show phenomena of toxicity | 17.6 | very toxic for chickens

From patent US4632926A, “Quinazolinone derivatives which are active against coccidiosis” (priority 1982, dated 1986)
